Where “and” joins values, the source holds several entries; their conditions need not be identical. Identical values can stand only once. Entries after “also recorded” stand apart in the source; their conditions may differ.
What was measured:
[1] = Stability of As-LHP complexes in Milli-Q water by XAS; assay type: physicochemical; conditions: 37° C.; for stability in Milli-Q water: XANES
Procedure: The stability of As-LHP complexes was studied by XAS. Samples were prepared by dissolving HyAs(LHP), MeAs(LHP) or PhAs(LHP) (1.5 mM) in Milli-Q water which was maintained at 37° C. Immediately prior to analysis the arsenic-peptide solution (600 μL) was mixed with ethylene glycol (300 μL) to prevent crystallisation during rapid freezing. The resultant solution (1 mM final As concentration) was transferred by syringe to the sample holder which was sealed with Kapton tape. The sample was then rapidly submerged in liquid nitrogen and transferred to the liquid helium cryostat where it was analysed at 10° K.
Arsenic K-edge XAS data were collected at the Australian National Beamline Facility (ANBF, beamline 20B) KEK, Tsukuba, Japan with a beam energy of 2.5 GeV, and beam current of 300-400 mA. A Si[111] channel-cut monochromator was detuned by 50% to reject harmonics. All spectra were recorded in fluorescence mode at ˜10° K (maintained with a closed-cycle He Cryolndustries REF-1577-D22 cryostat) using a 36-element Ge-array detector (Eurisys/Canberra Industries) and a 1-mm vertical slit width. XAS spectra were obtained at the zero time point and then at a later time point, 4 h or 14 h. The spectra from the two time points were processed and analysed using EXAFS PAK.

[2] = test system: K562 cells
[3] = Stability of As-LHP complexes in cell medium (IMDM) by XAS; assay type: physicochemical; conditions: 37° C., 0 h vs 24 h; for stability in IMDM: XANES
Procedure: The stability of the two most promising As-LHP complexes was also studied in cell medium (IMDM). Samples were prepared by dissolving MeAs(LHP) or PhAs(LHP) (1.5 mM) in IMDM which was maintained at 37° C. The same protocol was followed as that for the Milli-Q water stability studies. XAS spectra were obtained at the zero time point and then at 24 h. As with the Milli-Q water samples, the spectra from the two time points were processed, fitted and quantified using EXAFSPAK.

[4] = test system: Kasumi-1 cells; assay: Cellular As uptake, Kasumi-1 cells; assay type: cell-based, human; conditions: 1.5 μM As
Procedure: (§1) FIG. 24 is a graphical summary of the cellular As concentrations associated with the specified cell lines following 24-h treatment (1.5 μM As). The results are represented as the mean and standard deviation of triplicate samples.
(§2) FIG. 24 summarises the cellular As concentrations associated with the different cell types following 24-h treatment with the various As compounds (1.5 μM As). The leukemia cell lines, K562, HL-60, Kasumi-1 and KARPAS 45, are depicted in red (lighter of the filled in blocks), and the non-leukemia cell types are depicted in black (darkest shading), with the cancerous adherent cells, HepG2, in the diagonal stripes, and the normal cells, hPBMC, in solid black.

[5] = test system: HepG2 cells; assay type: cell-based, human
[6] = test system: A549 cells; conditions: 24-h treatment
[7] = test system: human peripheral blood mononuclear cells (hPBMC)
[8] = test system: HL-60 cells
[9] = test system: Kasumi-1 cells
[10] = test system: Chinese hamster (CH) solid tumour cells
[11] = test system: hPBMC; assay: Cellular As uptake, hPBMC; assay type: cell-based, human; conditions: 24-h treatment, 1.5 μM As
Procedure: as §1, §2

[12] = test system: HL-60 cells; assay: Fate of PhAs(LHP) in HL-60 cells (micrographs, microprobe SR-XRF, XANES); assay type: cell-based, human; conditions: HL-60, 10 μM
Procedure: (§3) The cell lines, K562 and HL-60, were obtained and maintained as previously described. Glutaraldehyde (25% solution), Spurr's low viscosity embedding resin, 3-mm gold Finder grids, and toluidine blue were sourced from Proscitech (Kirwan, Australia). Thin-sectioned cells were prepared for microprobe SRXRF analysis using procedures documented previously. Briefly the cells were treated in cell culture flasks (75 cm^2) with either IMDM (for the control cells, 4 h or 24 h) or PhAs(LHP) (10 μM in IMDM, 4 h or 24 h). The cells were washed with PBS (2 times) using centriguation and the final cell pellet was fixed in gluteraldehyde (1 mL, 2% v/v in PBS) for 2 h at room temperature; and dehydrated in ethanol (30%×2, 50%×2, 70%×2, 80%×2, 90%×2, 95%×2, 100%×4). Infiltration was achieved by rocking the cells in 50% ethanol/50% Spurr's resin overnight and then replacing with 100% Spurr's resin (×2 over 2 days) to ensure the removal of all traces of water. On the final day, the cells were embedded in 100% Spurr's resin, centrifuged (8000 g, 1 h) and cured at 60° C. overnight in a Beem capsule. Thin sections (1 μm) of the cell pellet were cut using an ultramicrotome (Leica EM UC7). The thin-sections were stained with toluidine blue before mounting on silicon nitride membranes.
The gold Finder grids were attached to kinematic mounts designed to fit both the light microscope (Leica DMXRE Epi-fluorescence/visual microscope) and the X-ray microprobe (2-ID-D). Optical micrographs and XY coordinates were obtained in order to locate suitable cells for analysis.
Microprobe SR-XRF was performed at beamline 2-ID-D at the Advanced Photon Source, Argonne National Laboratory (Lemont, Ill., USA). The 11.9-keV X-ray beam was focused to a spot size of 0.3×0.3 μm^2 using two zone plates. The samples were housed in a helium atmosphere and the distributions of the elements from P (2.1 keV) to As (11.9 keV) were mapped by raster scanning the sample in 0.3 μm steps, with the aid of a XYZ motorised stage. Fluorescent X-rays were detected using a dwell time of 2.5 s/pt and an energy dispersive Vortex EM (Hitachi High-Technologies Science America, Northridge, Calif.) silicon drift detector. Elemental distribution maps were processed using MAPS Version 1.7.3.02 software package (S. Vogt, Advanced Photon Source). Conversion of elemental fluorescence intensities to absolute densities in microgram per square centimetre (μg/cm^2) was performed by comparing X-ray fluorescence intensities with those from thin film standards, NBS-1832 and NBS-1833 (NIST, Gaithersburg, Md., USA).

[13] = test system: K562 cells; assay: Fate of PhAs(LHP) in K562 cells (micrographs, microprobe SR-XRF, XANES); assay type: cell-based, human; conditions: K562, 10 μM
Procedure: as §3
The gold Finder grids were attached to kinematic mounts designed to fit both the light microscope (Leica DMXRE Epi-fluorescence/visual microscope) and the X-ray microprobe (2-ID-D). […]
Microprobe SR-XRF was performed at beamline 2-ID-D at the Advanced Photon Source, Argonne National Laboratory (Lemont, Ill., USA). […] Fluorescent X-rays were detected using a dwell time of 2.5 s/pt and an energy dispersive Vortex EM (Hitachi High-Technologies Science America, Northridge, Calif.) silicon drift detector. […] Conversion of elemental fluorescence intensities to absolute densities in microgram per square centimetre (μg/cm^2) was performed by comparing X-ray fluorescence intensities with those from thin film standards, NBS-1832 and NBS-1833 (NIST, Gaithersburg, Md., USA).

[14] = test system: HepG2 cells
[15] = test system: K562 cells; assay: Cellular As uptake, K562 cells; assay type: cell-based, human; conditions: K562, 24-h treatment, 1.5 μM As
Procedure: as §1, §2

[16] = test system: KARPAS 45 cells
[17] = test system: HL-60 cells; assay: Cellular As uptake, HL-60 cells; assay type: cell-based, human; conditions: HL-60, 24-h treatment, 1.5 μM As
Procedure: as §1, §2

[18] = test system: KARPAS 45 cells; assay: Cellular As uptake, KARPAS 45 cells; assay type: cell-based, human; conditions: KARPAS 45, 24-h treatment, 1.5 μM As
Procedure: as §1, §2

Compound: CC(=O)N[C@H]1CS[As](O)SC[C@@H](C(=O)O)NC(=O)[C@H](CCCNC(=N)N)NC(=O)[C@H](CCCNC(=N)N)NC(=O)[C@H](CC(C)C)NC(=O)[C@H](CCCNC(=N)N)NC(=O)[C@H](Cc2c[nH]cn2)NC(=O)[C@H](Cc2ccc(O)cc2)NC(=O)[C@H](C)NC1=O (stereo partly shown) [HyAs(LHP)]
- stability in Milli-Q water ([1]; 0 h vs 4 h): not stable in Milli-Q water for 4 h; also recorded: lack of stability
- IC50 as percentage of that of ATO [2]: 60%

Compound: CC(=O)N[C@H]1CS[As](C)SC[C@@H](C(=O)O)NC(=O)[C@H](CCCNC(=N)N)NC(=O)[C@H](CCCNC(=N)N)NC(=O)[C@H](CC(C)C)NC(=O)[C@H](CCCNC(=N)N)NC(=O)[C@H](Cc2c[nH]cn2)NC(=O)[C@H](Cc2ccc(O)cc2)NC(=O)[C@H](C)NC1=O (stereo partly shown) [MeAs(LHP)]
- agreement between As K-edge XANES spectra at the two time points ([1]; 0 h vs 14 h): 93%
- stability in Milli-Q water ([1]; 0 h vs 14 h): good stability
- IC50 as percentage of that of ATO [2]: 37%
- IC50 as percentage of that of HyAs(LHP) [2]: 60%
- agreement between As K-edge XANES spectra at the two time points [3]: 82%
- stability in IMDM [3]: reasonable stability

Compound: CC(=O)N[C@H]1CS[As](c2ccccc2)SC[C@@H](C(=O)O)NC(=O)[C@H](CCCNC(=N)N)NC(=O)[C@H](CCCNC(=N)N)NC(=O)[C@H](CC(C)C)NC(=O)[C@H](CCCNC(=N)N)NC(=O)[C@H](Cc2c[nH]cn2)NC(=O)[C@H](Cc2ccc(O)cc2)NC(=O)[C@H](C)NC1=O (stereo partly shown) [PhAs(LHP)]
- cellular As concentration in Kasumi-1 cells, times greater than in HL-60 cells ([4]; 24-h treatment): 1.4 times
- cellular As concentration in Kasumi-1 cells, times higher than in K562 cells ([4]; 24-h treatment): 1.2 times
- cellular As concentration in Kasumi-1 cells, times higher than in KARPAS 45 cells ([4]; 24-h treatment): 4.0 times
- cellular As concentration [5]: no detectable cellular As concentrations
- selectivity: IC50 in A549 cells, times greater than in K562 and HL-60 cells [6]: 470 times
- IC50 ([6]; A549 cells, MTT): 234 ± 5 µM
- IC50 [7]: 495 ± 6 µM
- selectivity: IC50 in hPBMC, times greater than in K562 and HL-60 cells [7]: approximately 1000 times
- selectivity: IC50 in hPBMC, times greater than in KARPAS 45 cells [7]: approximately 64 times
- IC50 [8]: 0.5 ± 0.1 µM
- relative toxicity / IC50 versus another compound, in words (comparator in the value) [8]: three times greater toxicity toward HL-60 cells than the PAO starting material
- agreement between As K-edge XANES spectra at the two time points ([1]; 0 h vs 14 h): ~100%
- stability in Milli-Q water ([1]; 0 h vs 14 h): stable in Milli-Q water for 14 h; also recorded: excellent stability
- IC50 [9]: 1.4 ± 0.1 µM
- relative toxicity / IC50 versus another compound, in words (comparator in the value) [9]: approximately forty times more toxic than ATO
- times more toxic than PAO [9]: 3.6 times
- times more toxic than PhAs(sLHP) [9]: about 460 times
- IC50 [10]: 770 ± 12 µM
- selectivity: IC50 in CH solid tumour cells, times greater than in K562 and HL-60 cells [10]: approximately 1500 times
- agreement between As K-edge XANES spectra at the two time points [3]: 97%
- stability in IMDM [3]: reasonably stable in IMDM for 24 h; also recorded: good stability
- cellular As concentration [11]: no detectable cellular As concentrations
- cell morphology (toluidine-blue micrograph) ([12]; 4 h): cell distress is evident
- intracellular As distribution (microprobe SR-XRF) ([12]; 4 h): only small localisations of As
- cell morphology (toluidine-blue micrograph) ([12]; 24 h): high degree of cell degredation with evidence of cell demise
- intracellular As distribution (microprobe SR-XRF) ([12]; 24 h): the nucleus clearly contains a greater accumulation of As than the rest of the cell
- cell morphology (toluidine-blue micrograph) ([13]; 4 h): clear evidence of cell stress with fragmentation of the nucleus
- intracellular As distribution (microprobe SR-XRF) ([13]; 4 h and 24 h): significant As throughout the cell with evidence of accumulation in the cell nucleus
- cell morphology (toluidine-blue micrograph) ([13]; 24 h): breakdown of the cell membrane and fragmented/dispersed nuclear material
- IC50 [14]: 978 ± 11 µM
- selectivity: IC50 in HepG2 cells, times greater than in K562 and HL-60 cells [14]: ~2000 times

Compound: CC(=O)N[C@H]1CS[As](c2ccccc2)SC[C@@H](C(=O)O)NC(=O)[C@H](CCCNC(=N)N)NC(=O)[C@H](CC(C)C)NC(=O)[C@H](Cc2ccc(O)cc2)NC(=O)[C@H](CCCNC(=N)N)NC(=O)[C@H](Cc2c[nH]cn2)NC(=O)[C@H](CCCNC(=N)N)NC(=O)[C@H](C)NC1=O (stereo partly shown) [PhAs(sLHP)]
- cellular As concentration ([4]; Kasumi-1, 24-h treatment): no detectable As uptake
- cellular As concentration [5]: no detectable As uptake
- cellular As concentration [15]: no detectable As uptake
- IC50 [7]: 665 ± 8 µM
- IC50 [8]: 205 ± 4 µM
- IC50 [2]: 790 ± 30 µM
- times less toxic than PhAs(LHP) [2]: 1600 times
- times less toxic than PhAs(LHP) [16]: 32 times
- cellular As concentration [17]: no detectable As uptake
- cellular As concentration [11]: no detectable As uptake
- cellular As concentration [18]: no detectable As uptake
- IC50 [14]: 960 ± 10 µM

Compound: arsenic trioxide [ATO]
- cellular As concentration in Kasumi-1 cells, times greater than in HepG2 cells ([4]; 24-h treatment): 5.5 times
- IC50 [7]: 81.7 µM and 82 µM
- relative toxicity / IC50 versus another compound, in words (comparator in the value) [7]: approximately twice that obtained for arsenite
- IC50 [8]: 7 ± 0.1 µM
- relative toxicity / IC50 versus another compound, in words (comparator in the value) [8]: a little less than half that obtained for arsenite
- IC50 [2]: 9.7 ± 0.2 µM
- relative toxicity / IC50 versus another compound, in words (comparator in the value) [2]: approximately half that of arsenite
- IC50 [9]: 61 ± 1 µM
- IC50 [16]: 15.1 µM and 15 µM
- IC50 as percentage of the value for arsenite [16]: 23%
- IC50 [10]: 23.3 ± 0.9 µM
- IC50 [14]: 52 ± 3 µM
- times more toxic than arsenite [14]: 1.7 times

Reference: patent US11819489B2 (priority 2017, dated 2023)
